Results taken from patent US20230107216A1, “PANTETHEINE DERIVATIVES AND USES THEREOF” (Comet Therapeutics, Inc., priority 2018, published 2023).
Where two headings read alike, the source gives them in different places.

How the values were obtained:
[1] = tested on: oligodendrocyte precursor cells (OPC) in mixed brain cultures; assay: Oligodendrocyte precursor cells (OPC) proliferation, O4+ cell count; type: cell-based, mouse; conditions: 10 uM
Description: The effect of compounds of the present disclosure was determined on oligodendrocyte precursor cells proliferation (OPC).
Cell culture. Brains of wild type mice (whole brain from 1 or 2 mouse pups) less than postnatal day (P) 2 were isolated and cultured. Briefly, following removal of the meninges, cells were dissociated with 0.25% EDTA/CMF-DMEM and 1% Trypsin (1:1), plated at a density of 75,000 cells/on 0.1 mg/ml poly-L-lysine coated borosilicate glass coverslips in 24-well plates, grown in OPC differentiation media (Oligo media) consisting of DMEM/F12 (Invitrogen 21331-020) supplemented with 1% FBS, 1% N2 Neural Supplement (Invitrogen 17502-048) and PDGF receptor alpha growth factor (Invitrogen 17502-048). Cells were fed every other day and allowed to grow for 7 days in vitro (DIV).
OPCs treatment with compounds of the present disclosure. Cells were treated with compounds of the present disclosure (50-10 μM) or vehicle (0.1% DMSO) starting at 7 DIV. Media was replaced daily with freshly made working solutions of compounds or vehicle for either 48 h (9 DIV total) or 96 h (11 DIV). The 48 h group consisted of 1 coverslip per condition. The 96 h group was treated in duplicate.
Fresh aliquots of compounds of the present disclosure were made up on the day of treatment, briefly, a 50 mM stock was thawed and used to make up fresh 50 μM working solution in Oligo Media. The fresh 50 μM working solution was diluted further in Oligo Media to make 10 μM working solution. Vehicle controls was made up in fresh Oligo Media using the appropriate amount of vehicle (DMSO). Coverslips were stored in clean 24-well plates at 4° C. until fixed-staining. Cells were imaged using Leica DM5500 fluorescent microscope with LAS-X software.
Exposure settings were maintained at the same rate across compounds of the same time-point. Cells were imaged at 20× and 40× magnifications. At least 5 images were taken per condition. Most conditions had at least 5 images that were counted. 20× images were utilized for counting DAPI (cell nuclei) and O4+ cells.
Total DAPI per image for all images was counted using ImageJ as here indicated. • Image was converted to 8 bit • Blue Channel (DAPI) was automatically thresholded by default ImageJ settings • Image noise was reduced by ImageJ>Process>Noise>Despeckle • ImageJ>Process>Binary>Watershed was used to automatically separate merged cell nuclei • ImageJ>Analyze>Analyze Particles was used to obtain final count of DAPI per image • Total number of DAPI-positive cells
Total number of O4+ cells per 20× image was manually counted using Adobe Photoshop: • All cell bodies of OPCs with underlying DAPI stain were counted as an O4+ cell • Total number of O4+ cells were recorded in Excel Spreadsheet O4+ cells in mixed brain cultures of wild type mice <P2 treated with compounds of the present disclosure or vehicle were quantified per condition (time point and concentration). The following formula was used to normalize the total cell counts within a compound as well as across compounds treated for the same duration (48h vs. 96h):
(number of O4+cell counts in Compound X/Average DAPI count for Compound X)*Total Average DAPI count across compounds of same Time Point
Values were plotted as Scatter Interval plots in Origin. Each data point represents a single image from which O4+ cell values were obtained. Data are presented as mean±S.E.
Images are at 20× magnification and represent 1-2 coverslips per group. Scale bar, 50 μm.

[2] = tested on: primary fibroblasts (healthy controls and PA, MMA, BCKDK, PDH, VLCAD, LS, PC, GA, VLCFA, KSS, FXN, HD); assay: Measurement of ROS (H2DCFDA) in primary fibroblasts; type: cell-based, human; conditions: Homo sapiens, procedure Example 812, Assay Condition C, read-out: Decreased ROS by at least 10%
How it was run: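 Patient and healthy-control primary fibroblasts switched to supplemented DMEM 24 h before assay, then treated with compound (10 μM) plus H2DCFDA (22 μM) for 2 h (PA, MMA lines) or 24 h (other lines). Kinetic fluorescence at 492/527 nm over 60 min; only live cells analysed.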

[3] = tested on: Pkd1−/− mouse inner medullary collecting duct cells (mIMRFNPKD 5E4); assay: mPKD 3D cyst swelling assay (forskolin-induced); type: cell-based; conditions: after 72 hours of forskolin exposure
Description: Cell model and control compounds. mIMCD3 WT cells were obtained via ATCC and modified to create the mIMRFNPKD 5E4 cell line, which has a CRISPR-Cas mediated knockout for Pkd1 as described SLAS Discov. 2017 September; 22(8):974-984. doi: 10.1177/2472555217716056. Cells were cultured in DMEM/F12 (Sigma)+10% FBS (Sigma)+0.5% Pen/Strep (Gibco)+1% GluMax (Gibco). Control compounds used were forskolin (Calbiochem, 344282), Rapamycin (Selleckchem, S1039) and Staurosporin (Selleckchem, S1421).
The 3D mouse cyst swelling assay was performed with Pkd1^−/− mouse inner medullary collecting duct cells (mIMRFNPKD 5E4). The cyst swelling protocol that was used was described previously (SLAS Discov. 2017 September; 22(8):974-984. doi: 10.1177/2472555217716056), with further optimization.
3D culture and compound exposure. mIMRFNPKD 5E4 cells were mixed with Cyst-Gel (OcellO BV). 15 μL of cell-gel mix was pipetted to 384-well plates (Greiner μClear, Greiner Bio-One B.V.) using a CyBio Felix 96/60 robotic liquid dispenser (Analyik Jena AG). Gel-cell mix was plated at a final cell density of 2250 cells per well. After gel polymerization at 37° C. for 30 minutes, 33 μL culture medium was added to each well. Cells were grown in the gel for 96 hours, after which the cells were co-exposed with forskolin (Calbiochem, 344282) and one the following molecules: reference compound Rapamycin (SelleckChem, S1039), toxic control compound Staurosporin (SelleckChem, S1421) or test compounds.
Sample processing. After 72 hours, cultures were fixed with 4% Formaldehyde (Sigma Aldrich) and simultaneously permeabilized with 0.2% Triton-X100 (Sigma Aldrich) and stained with 0.25 μM rhodamine-phalloidin (Sigma Aldrich) and 0.1% Hoechst 33258 (Sigma Aldrich) in 1×PBS (Sigma Aldrich) for 2 days at 4° C., protected from light. After fixation and staining, plates were washed with 1×PBS, sealed with a Greiner SilverSeal (Greiner Bio-One B.V.) and stored at 4° C. prior to imaging.
Imaging and image analysis. Imaging was done using Molecular Devices ImageXpress Micro XLS (Molecular Devices) with a 4× NIKON objective. For each well around 35 images in the Z-direction were made for both channels, capturing the whole z-plane in each image. Image analysis was performed using Ominer™ software (OcellO BV). Cysts were segmented using detection of Hoechst-stained nuclei and Rhodamine-phalloidin-stained cellular f-actin. Cyst area was determined by calculating for the area in px of each object in every in-focus plain. This was averaged per well. (N represented is number of wells) Fraction of apoptotic nuclei as an indicator of toxicity was calculated as the amount of nuclei without actin signal relative to the total amount of nuclei, both as count-measurements. Statistics was done using KNIME Analytics Platform (Konstanz, Germany, http://www.knime.org/), graphs were prepared in GraphPad Prism 6 (GraphPad Software, La Jolla, Calif.).

[4] = tested on: Peripheral blood mononuclear cells co-cultured with B-cells (BT system); assay: cells; conditions: Homo sapiens, 72 h, read-out: % increase in sIL-6
[5] = tested on: HepG2 cells; assay: Glucose uptake (Glucose Uptake-Glo); type: cell-based; conditions: Homo sapiens, 50 uM, read-out: % increase in Glucose Uptake
[6] = tested on: Peripheral blood mononuclear cells co-cultured with B-cells (BT system); conditions: 1 uM; procedure of Example 829
[7] = tested on: Peripheral blood mononuclear cells co-cultured with venular endothelial cells (HUVEC) (LPS system); assay: BioMAP LPS system; type: cell-based, human; conditions: procedure of Example 827
[8] = tested on: Venular Endothelial cells (HUVEC) (4H system); assay: BioMAP 4H system (IL-4 and histamine); type: cell-based, human; conditions: Homo sapiens, HUVEC, 24 h; 1 uM; procedure of Example 826; read-out: % decrease in VEGFRII
[9] = tested on: Dermal fibroblasts (HDF3CGF system); assay: BioMAP HDF3CGF system (IL-1β, TNFα, IFNγ, EGF, bFGF, PDGF-BB); type: cell-based, human
[10] = tested on: Bronchial epithelial cells co-cultured with dermal fibroblast (BF4T system); assay: BioMAP BF4T system (TNFα and IL-4); type: cell-based, human; conditions: Homo sapiens, 24 h; 10 uM; procedure of Example 830; read-out: % increase in VCAM-1
[11] = tested on: Coronary artery smooth muscle cells (CASM3C system); assay: BioMAP CASM3C system (IL-1β, TNFα, IFNγ); type: cell-based, human; conditions: 10 uM
[12] = tested on: HepG2 cells; assay: MitoBiogenesis In-Cell ELISA (COX-I, SDH-A); type: cell-based; conditions: Homo sapiens, 168 h, 50 uM, 7 days, read-out: % increase in Mitochondrial Biogenesis
From the text: We determined the effect of compounds of the present disclosure on the levels of two mitochondrial proteins using MitoBiogenesis™ In-Cell ELISA Kit (Abcam ab110216) according to manufacturer's instructions. The two proteins are each subunits of a different oxidative phosphorylation enzyme complex, one protein being subunit I of Complex IV (COX-1), which is mitochondrial (mt)DNA-encoded, and the other being the 70 kDa subunit of Complex II (SDH-A), which is nuclear (n)DNA-encoded. Complex IV includes several proteins which are encoded in the mitochondrion, while the proteins of Complex II are entirely encoded in the nucleus. HepG2 cells (ATCC, HB-8065) were cultured (5% CO2 at 37° C.) and plated in Poly-D-Lysine 384-Well plate (Corning, 356663) at a density of 40,000 cells/mL in 50 μL. Culture and assay media consisted of DMEM (Gibco, 11995-065) supplemented with 1% Penicillin-Streptomycin and 10% FBS (Hyclone, SV30087.03). Cells were allowed to settle for 30 min at room temperature and further incubated overnight (37° C. and 5% CO2) for adherence. Next day, 50-5 μM of the negative control Chloramphenicol (Selleck, S1677), test compounds (50-10 μM) and vehicle DMSO (0.2%) were added at the recommended volumes to the 384-well plate for 7 days without media change using a Tecan compound dispenser. All the solutions and wash buffers were prepared and dispensed according to manufacturer's volumes for a 384-well plate format. Effects of compounds on mtDNA-encoded protein expression (COX-I) and nuclear DNA-encoded mitochondrial protein expression (SDH-A) were expressed as relative signal (nm) to vehicle of a n=2 per conditions.

[13] = tested on: HepG2 cells; assay: Mitochondrial membrane potential (MITO-ID MP detection Kit); type: cell-based; conditions: Homo sapiens, 168 h, 10 uM, 7 days, read-out: % decrease in Mitochondrial Membrane Potential
How it was run: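 Cells plated at 160000 cells/mL in DMEM with 10% FBS and 1% Pen-Strep, adhered overnight at 37° C., 5% CO2. Exposure to test compounds (50-10 μM) or 0.2% DMSO for 7 days without media change; membrane potential measured with MITO-ID MP detection kit per manufacturer.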

**Q.** For `COC(=O)/C=C/C(=O)SCCNC(=O)CCNC(=O)[C@H](O)C(C)(C)CO` [Compound 20, Methyl (R,E)-4-((2-(3-(2,4-dihydroxy-3,3-dimethylbutanamido)propanamido)ethyl)thio)-4-oxobut-2-enoate], which “% Increase OPC proliferation” value [1] is on record?
**A.** ≥25%

**Q.** And the inhibition at 10 µM ([2]; Fibroblast, NPC1 GM22879)?
**A.** ≥ 10%

**Q.** What about the inhibition at 10 µM ([2]; FXN GM04078) of the same molecule?
**A.** ≥ 10%

**Q.** `COC(=O)CCC(=O)CC(=O)SCCNC(=O)CCNC(=O)[C@H](O)C(C)(C)COC(C)=O` [Compound 141, methyl 6-[(2-[3-[(2R)-4-(acetyloxy)-2-hydroxy-3,3-dimethylbutanamido]propanamido]ethyl)sulfanyl]-4,6-dioxohexanoate] was tested. Which “% prevention of forskolin-induced cyst swelling” value ([3]; 50 uM) did it give?
**A.** ≥10%

**Q.** And the activation at 1 µM [4]?
**A.** ≥ 20%

**Q.** What about the activation at 50 µM [5] of the same molecule?
**A.** ≥ 30%

**Q.** And the “% decrease in B-cell proliferation” value [6]?
**A.** ≥10%

**Q.** And the “% decrease in M-CSF” value ([7]; 1 uM)?
**A.** ≥10%

**Q.** What about the inhibition at 10 µM ([7]; Homo sapiens, HUVEC, 24 h, 10 uM, read-out: % decrease in sPGE2) of the same molecule?
**A.** ≥ 10%

**Q.** What about the activation at 10 µM ([7]; Homo sapiens, HUVEC, 24 h, 10 uM, read-out: % increase in sTNFα) of the same molecule?
**A.** ≥ 10%

**Q.** What about the inhibition at 1 µM [8] of the same molecule?
**A.** ≥ 20%

**Q.** What about the “% decrease in Collagen I” value ([9]; 1 uM, procedure of Example 833) of the same molecule?
**A.** ≥10%

**Q.** What about the “% increase in SRB” value ([9]; 10 uM) of the same molecule?
**A.** ≥10%

**Q.** And the inhibition at 1 µM ([9]; Homo sapiens, Fibroblast, 24 h, 1 uM, read-out: % decrease in Collagen III)?
**A.** ≥ 10%

**Q.** And the activation at 10 µM [10]?
**A.** ≥ 20%

**Q.** And the “% increase in Proliferation” value ([11]; procedure of Example 832)?
**A.** ≥10%

**Q.** And the inhibition at 10 µM ([11]; Homo sapiens, 24 h, read-out: % decrease in Thrombomodulin)?
**A.** ≥ 10%

**Q.** Which “% prevention of forskolin-induced cyst swelling” value ([3]; 10 uM) does the source give for `COC(=O)CCC(=O)SCCNC(=O)CCNC(=O)[C@H](O)C(C)(C)COP1(=O)OCCO1` [Compound 1308] here?
**A.** ≥10%

**Q.** What about the activation at 50 µM [12] of the same molecule?
**A.** > 5%

**Q.** What about the inhibition at 10 µM [13] of the same molecule?
**A.** > 50%
